Test systems include A549 NSCLC; HCT-15 colon; HOP-62 NSCLC; M14 melanoma; NCI-H460 lung; NCI/ADR-RES ovarian; OVCAR-8 ovarian; RPMI-8226 leukemia; SF-268 CNS; SK-MEL-2 melanoma.
Experiment in all cases: DTP human tumour cell line panel, 48 h

Several values for one entry are separate records, joined by “and”; a condition that tells them apart may be missing. Equal values may be shown once.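 Dose response: 5 concentrations. Exposure: 48 h. Format: 96-well plates. Endpoint: linear interpolation; highest concentration if not reached. GI50 marks 50% less growth. At the TGI there is no net growth.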

A word on the GI50: it is the concentration that inhibits growth by half. Usually TGI stands for the concentration giving total growth inhibition. Read a high TGI as lower sensitivity of the cells. Regarding `CC[C@]12C=CCN3CC[C@@]4(c5ccc(OC)cc5N(C)[C@H]4[C@@](O)(C(=O)OC)[C@@H]1OC(=O)CCC[P+](c1ccccc1)(c1ccccc1)c1ccccc1)[C@@H]32`, the GI50 in the assay on A549 NSCLC was 1.5 µM and 1.11 µM; in the assay on HCT-15 colon, 8.69 µM and 14.2 µM; with HOP-62 NSCLC it was 1.84 µM and 2.18 µM; in the assay with M14 melanoma, 0.762 µM and 1.05 µM; in the assay on NCI-H460 lung, 1.38 µM and 1.31 µM; with NCI/ADR-RES ovarian it was > 50 µM and 68.9 µM. Further, the GI50 in the assay with OVCAR-8 ovarian is 1.45 µM and 1.59 µM; in the assay on RPMI-8226 leukemia, 0.118 µM and 0.164 µM; with SF-268 CNS, 0.933 µM and 0.455 µM; in the assay with SK-MEL-2 melanoma, 0.441 µM and 0.356 µM. In addition, the TGI in the assay with A549 NSCLC was 36.2 µM and 11.4 µM; in the assay with HCT-15 colon, 20.7 µM and 28.8 µM; with HOP-62 NSCLC it was 7.71 µM and 7.08 µM; with M14 melanoma it was 2.93 µM and 2.85 µM; with NCI-H460 lung, 5.82 µM and 11 µM; in the assay with NCI/ADR-RES ovarian, over 100 µM. Besides, the TGI is 6.77 µM and 9.71 µM with OVCAR-8 ovarian; 1.29 µM and 0.597 µM in the assay on RPMI-8226 leukemia; 6.84 µM and 2.65 µM in the assay with SF-268 CNS; 1.52 µM and 1.27 µM with SK-MEL-2 melanoma.
Turning to `COc1ccc(C(=O)c2cc(OC)c(C)c(OC)c2)cc1OC(=O)CCl`, the GI50 is 1.11 µM with A549 NSCLC; 0.0697 µM in the assay with HCT-15 colon; 0.668 µM in the assay with HOP-62 NSCLC; 0.0693 µM in the assay on M14 melanoma; 0.37 µM in the assay on NCI-H460 lung; 0.181 µM in the assay on NCI/ADR-RES ovarian. The GI50 was 0.507 µM in the assay on OVCAR-8 ovarian, 0.337 µM in the assay on RPMI-8226 leukemia, 1.33 µM in the assay on SF-268 CNS and 0.671 µM in the assay with SK-MEL-2 melanoma. Moreover, the TGI was over 100 µM in the assay on A549 NSCLC; 27.2 µM with HCT-15 colon; over 100 µM in the assay with HOP-62 NSCLC; 12.2 µM in the assay on M14 melanoma; 12.7 µM with NCI-H460 lung; 4.38 µM with NCI/ADR-RES ovarian. The TGI in the assay with OVCAR-8 ovarian is over 100 µM; in the assay with RPMI-8226 leukemia it was 14.1 µM; in the assay with SF-268 CNS, over 100 µM; in the assay on SK-MEL-2 melanoma, 66.1 µM.
Consider `Oc1ccc(Cl)cc1Cc1cc(Cl)cc(Cl)c1O`, for which the GI50 in the assay with A549 NSCLC is 5.48 µM; with HCT-15 colon, 4.18 µM; in the assay on HOP-62 NSCLC it was 3.68 µM; in the assay on M14 melanoma, 4.61 µM; in the assay with NCI-H460 lung it was 3.22 µM; in the assay on NCI/ADR-RES ovarian it was 3.29 µM. In addition, the GI50 is 12.8 µM in the assay on OVCAR-8 ovarian, 3.09 µM in the assay with RPMI-8226 leukemia, 3.82 µM in the assay on SF-268 CNS and 5.53 µM in the assay with SK-MEL-2 melanoma. In addition, the TGI was 47.6 µM in the assay with A549 NSCLC; 23.5 µM with HCT-15 colon; 21 µM in the assay on HOP-62 NSCLC; 23 µM with M14 melanoma; 13.2 µM with NCI-H460 lung; 10 µM in the assay on NCI/ADR-RES ovarian. Moreover, the TGI stood at 76.4 µM with OVCAR-8 ovarian, 11.9 µM with RPMI-8226 leukemia, 57.9 µM in the assay on SF-268 CNS and 29 µM in the assay with SK-MEL-2 melanoma.
Regarding `COCCOc1cc(F)c2c(Nc3ccc(NC(=O)Cn4cc(C(C)C)nn4)cc3)ncnc2c1`, the GI50 with A549 NSCLC was over 100 µM; in the assay on HCT-15 colon, over 100 µM; in the assay on HOP-62 NSCLC, 22.2 µM; with M14 melanoma it was over 100 µM; in the assay on NCI-H460 lung, 51.3 µM; with NCI/ADR-RES ovarian, over 100 µM. For the same molecule, the GI50 in the assay with OVCAR-8 ovarian was 37.4 µM; with RPMI-8226 leukemia it was over 100 µM; with SF-268 CNS, 37.5 µM; with SK-MEL-2 melanoma, 44.7 µM. Also, the TGI in the assay on A549 NSCLC, with HCT-15 colon, in the assay on HOP-62 NSCLC, with M14 melanoma, in the assay with NCI-H460 lung and in the assay with NCI/ADR-RES ovarian was over 100 µM in each case. In addition, the TGI with OVCAR-8 ovarian, in the assay on RPMI-8226 leukemia, in the assay on SF-268 CNS and in the assay with SK-MEL-2 melanoma was over 100 µM each time.
